Experimental findings from BindingDB's records for PubMed 9808667 (Dupont Pharmaceuticals, 1998) are described below.

Square brackets hold non-standard residues; d marks the D form. Peptide text beside a SMILES is read from it.

The target in the assay is T1, Galanin receptor type 1 (Homo sapiens, UniProt P47211).
T1 sequence (P47211 whole entry): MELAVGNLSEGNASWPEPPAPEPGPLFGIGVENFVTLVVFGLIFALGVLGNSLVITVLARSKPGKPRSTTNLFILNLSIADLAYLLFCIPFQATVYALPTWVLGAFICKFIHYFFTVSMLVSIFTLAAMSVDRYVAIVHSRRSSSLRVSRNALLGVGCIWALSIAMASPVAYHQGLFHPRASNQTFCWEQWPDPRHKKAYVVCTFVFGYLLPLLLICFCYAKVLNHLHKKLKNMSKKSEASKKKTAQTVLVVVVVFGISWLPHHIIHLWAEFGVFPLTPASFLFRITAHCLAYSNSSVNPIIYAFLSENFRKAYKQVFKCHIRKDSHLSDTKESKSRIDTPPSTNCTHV

For the compound `CC(C)C[C@H](NC(=O)[C@H](CC(C)C)NC(=O)[C@@H](Cc1c[nH]c2ccccc12)NC(=O)[C@H](Cc1ccccc1)NC(=O)[C@@H](Cc1c[nH]c2ccccc12)NC(=O)[C@H](CCC(N)=O)NC(=O)[C@H](CCC(N)=O)NC(=O)[C@@H]1CCCN1C(=O)[C@H](CCCCN)NC(=O)[C@@H]1CCCN1C(=O)[C@@H](CCCNC(=N)N)NC(=O)[C@@H]1CCCN1C(=O)CNC(=O)[C@H](CC(C)C)NC(=O)[C@H](CC(C)C)NC(=O)[C@H](Cc1ccc(O)cc1)NC(=O)CNC(=O)[C@H](C)NC(=O)[C@H](CO)NC(=O)[C@H](CC(N)=O)NC(=O)[C@H](CC(C)C)NC(=O)[C@@H](NC(=O)[C@H](Cc1c[nH]c2ccccc12)NC(=O)CN)[C@@H](C)O)C(N)=O` [Gal(1-13)-Std I] (H-GWTLNSAGYLLGP[dR]PKPQQ[dW]F[dW]LL-NH2), the inhibition constant (Ki) amounted to 685 nM.
